Results published in patent US20140303090A1, “Smac Mimetic Therapy” (TETRALOGIC PHARMACEUTICALS CORPORATION, priority 2013, published 2014).
Where two headings read alike, the source gives them in different places.

Columns and labels:
[1] = test system: DAP-mediated NF-κB-luc (NOD1); assay: DAP-stimulated NF-kB luciferase reporter gene assay (NOD1 signaling) in HCT116 cells; assay type: cell-based, human; settings: for Inhibition of DAP-mediated NF-κB-luc, % Inhibition: 10 μM Smac mimetic, HCT116 cells
Method: (§1) To assay effects on XIAP E3 ubiquitin ligase activity manifested as NF-kB activation, we established both DAP- and MDP-stimulated luciferase reporter gene assays in which Smac mimetics are evaluated in cells at a single 10 μM drug concentration. Specifically, we developed stable cell lines with HCT116 cells (human colon cancer) that carry the NF-kB-luciferase reporter gene under the regulation of NF-kB promoter activation elements. The assay was carried out as follows: • 1. HCT116 (3-3) cells were cultured in white wall 96-wells plate (50,000 cells/50 μL/well) for overnight at 37° C. • 2. […] The luciferase activity in each well was measured by using Steady-Glo® Luciferase Assay System (Promega Corp.). 48 μL of luminescence detection reagent was added in each well, followed by brief agitation. The plate was left in dark for 15 minutes and then the luminescence activity was measured by using microplate reader Victor2 (PerkinElmer Life and Analytical Science, Shelton, Conn.). • 4. Calculation:
(§2) Luciferase activity in no ligand (i.e., […]) treatment wells=background (BG)
(§3) Luciferase activity in ligand only treatment wells=positive control (PC)
(§4) Luciferase activity in Smac mimetic (SM)+ligand treatment wells=Test • i) Test<PC
(§5) Inhibitory activity by SM(%)=100×[(PC−Test)/(PC−BG)] • ii) Test>PC
(§6) Activation by SM(%)=100×[(Test−BG)/(PC−BG)]

[2] = test system: MDP-mediated NF-κB-luc (NOD2); assay: MDP-stimulated NF-kB luciferase reporter gene assay (NOD2 signaling) in HCT116 cells; assay type: cell-based, human; settings: for Inhibition of MDP-mediated NF-κB-luc, % Inhibition: 10 μM Smac mimetic, HCT116 cells
Method: as §1, §2, §3, §4, §5, §6

GFP-cIAP2 [3] = biological target: T1, GFP-cIAP2 (Homo sapiens, UniProt Q13489); assay: GFP-cIAP2 degradation assay (loss of GFP signal, flow cytometry); assay type: cell-based
T1 construct: expressed in transfected cells
T1 sequence (Q13489 whole entry): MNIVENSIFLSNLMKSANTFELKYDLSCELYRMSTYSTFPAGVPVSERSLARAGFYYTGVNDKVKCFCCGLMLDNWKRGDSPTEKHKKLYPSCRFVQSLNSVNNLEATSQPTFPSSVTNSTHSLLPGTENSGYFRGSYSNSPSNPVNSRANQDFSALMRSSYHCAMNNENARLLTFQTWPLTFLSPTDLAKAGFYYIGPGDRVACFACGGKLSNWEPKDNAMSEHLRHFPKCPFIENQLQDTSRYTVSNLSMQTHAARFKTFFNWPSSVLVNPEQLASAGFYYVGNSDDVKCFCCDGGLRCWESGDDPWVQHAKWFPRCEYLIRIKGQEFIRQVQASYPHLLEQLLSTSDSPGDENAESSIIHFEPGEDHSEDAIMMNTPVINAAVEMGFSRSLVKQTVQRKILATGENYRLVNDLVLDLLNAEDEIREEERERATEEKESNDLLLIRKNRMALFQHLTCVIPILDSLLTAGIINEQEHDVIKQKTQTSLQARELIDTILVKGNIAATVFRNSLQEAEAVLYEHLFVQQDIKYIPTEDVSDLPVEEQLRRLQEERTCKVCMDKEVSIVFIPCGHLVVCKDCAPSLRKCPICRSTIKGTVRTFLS
Description: In this assay, treatment of GFP-cIAP-expressing melanoma cell line A375 with Smac mimetic, Compound 15, for two hours, results in degradation of cIAP-1 and cIAP-2 with concomitant loss of GFP-signal.

GFP-cIAP2 [4] = biological target: T1, GFP-cIAP2; assay: as above; assay type: cell-based; settings: read-out: ΔGFP-cIAP2 EC50, 24 h
XIAP BIR3 = XIAP BIR3 (Homo sapiens, UniProt P98170); assay: Fluorescence polarization displacement assay, XIAP BIR3
XIAP BIR3, sequence (P98170 241-356 limits assumed): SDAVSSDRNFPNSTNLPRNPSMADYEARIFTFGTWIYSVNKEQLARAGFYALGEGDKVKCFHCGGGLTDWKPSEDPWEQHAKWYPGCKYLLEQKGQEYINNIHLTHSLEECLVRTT
Description: (§7) To establish protein-ligand binding affinity, we employed a fluorescence polarization assay. This assay monitored the displacement of an IAP binding motif (IBM)-containing peptide, Abu-RPFK(5-carboxyfluorescein)-NH2, from the Type III BIR domains of cIAP1, cIAP2, XIAP, and ML-IAP.

TRAF2-bound cIAP-2 = TRAF2-bound cIAP-2 (Homo sapiens, UniProt Q13489); assay: Anti-TRAF2 co-immunoprecipitation and western blot of TRAF2-bound cIAP-2 in GFP-cIAP-2 A375 cells; settings: 100 nM, 0 to 240 minutes
TRAF2-bound cIAP-2, sequence (Q13489 whole entry): as the sequence (Q13489 whole entry) above
TRAF2-bound cIAP-2, sequence (Q12933 whole entry partner): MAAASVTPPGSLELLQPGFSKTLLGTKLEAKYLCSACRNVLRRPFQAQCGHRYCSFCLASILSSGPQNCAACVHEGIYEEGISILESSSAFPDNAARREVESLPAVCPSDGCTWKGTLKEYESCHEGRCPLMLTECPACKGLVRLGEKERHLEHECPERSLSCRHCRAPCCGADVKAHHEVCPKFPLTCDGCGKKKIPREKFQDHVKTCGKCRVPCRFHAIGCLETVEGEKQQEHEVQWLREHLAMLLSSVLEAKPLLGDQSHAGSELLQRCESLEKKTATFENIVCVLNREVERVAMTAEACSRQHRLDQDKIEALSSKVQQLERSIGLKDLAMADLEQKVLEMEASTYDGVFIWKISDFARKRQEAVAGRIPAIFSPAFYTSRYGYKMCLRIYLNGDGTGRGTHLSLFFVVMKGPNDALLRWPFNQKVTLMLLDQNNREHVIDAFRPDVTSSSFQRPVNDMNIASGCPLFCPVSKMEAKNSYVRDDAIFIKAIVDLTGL
Method: (§8) The stable cell lines expressing GFP-cIAP-1 or GFP-cIAP-2 were cultured in 10 cm dishes in sub-confluence overnight. […] The lysate was cleared by centrifugation (14000 rpm) at 4° C. for 10 minutes and the supernatant was subjected to the co-immunoprecipitation experiment. The protein concentration of the supernatant was measured by using Bradford reagent (Sigma). Co-immunoprecipitation was carried out with 600 μg of the total protein and 1 μg of anti-TRAF 2 antibody (Cell Signaling). After the incubation at 4° C. for overnight, 25 μL protein A/G beads (Invitrogen) was added to precipitate the immunocomplex. The beads were washed with the lysis buffer three times, followed by dissolving with 25 μL SDS-Loading buffer (Invitrogen).
(§9) The membrane was soaked with the blocking buffer (LICOR) for 30 minutes, followed by incubation with the primary antibodies, cIAP-1 and cIAP-2 (R&D Systems), at 4° C. for overnight. After the incubation, the membrane was washed three times with TBS-T buffer (Invitrogen) and incubated with IRDye anti-goat antibody (LICOR) at 37° C. for 45 minutes. Following 5 times washings, the membrane was scanned by The Odyssey Infrared Imaging System (LICOR).

xenograft = settings: cited from earlier work
[5] = biological target: cIAP-1 (cytoplasmic and TRAF2-bound) (Homo sapiens, UniProt Q13490); assay: Co-immunoprecipitation and western blot, cytoplasmic versus TRAF2-bound cIAP-1 in GFP-cIAP-1 A375 cells; settings: 100 nM, 0 to 240 minutes, visual
cIAP-1 (cytoplasmic and TRAF2-bound), sequence (Q13490 whole entry): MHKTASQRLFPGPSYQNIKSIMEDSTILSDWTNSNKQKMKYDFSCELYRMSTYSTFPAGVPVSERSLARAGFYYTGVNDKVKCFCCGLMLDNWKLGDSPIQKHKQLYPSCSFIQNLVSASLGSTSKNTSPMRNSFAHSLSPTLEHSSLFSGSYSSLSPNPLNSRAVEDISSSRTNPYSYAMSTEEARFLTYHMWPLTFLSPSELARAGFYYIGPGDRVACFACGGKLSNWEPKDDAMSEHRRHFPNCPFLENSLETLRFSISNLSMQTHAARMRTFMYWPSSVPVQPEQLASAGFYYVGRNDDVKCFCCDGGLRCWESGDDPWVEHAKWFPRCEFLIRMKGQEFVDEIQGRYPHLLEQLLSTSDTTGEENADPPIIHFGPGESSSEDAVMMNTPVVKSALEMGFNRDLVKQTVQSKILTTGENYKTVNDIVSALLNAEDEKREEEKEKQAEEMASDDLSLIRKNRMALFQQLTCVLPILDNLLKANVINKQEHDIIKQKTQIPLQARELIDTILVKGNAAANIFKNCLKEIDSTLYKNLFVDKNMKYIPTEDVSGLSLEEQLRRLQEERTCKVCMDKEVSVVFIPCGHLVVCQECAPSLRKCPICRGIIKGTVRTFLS
Method: as §8, §9

[6] = cited from earlier work
cytoplasmic cIAP-2 = cytoplasmic cIAP-2 (Homo sapiens, UniProt Q13489); assay: Western blot of cytoplasmic cIAP-2 in GFP-cIAP-2 A375 cells; settings: 100 nM, 0 to 240 minutes
cytoplasmic cIAP-2, sequence (Q13489 whole entry): as the sequence (Q13489 whole entry) above
Method: as §8, §9

Xiap−/− murine BMDMs = assay: IL-1β secretion from LPS-primed XIAP knockout bone marrow-derived macrophages; assay type: cell-based; settings: 24 h
Method: We thus evaluated a selection of Smac-mimetics in both LPS-primed wild-type (WT) and XIAP knockout (Xiap^−/−) murine BMDMs to assess their capacity to induce the secretion of IL-1β following treatment with Smac-mimetic (FIG. 4).
WT and Xiap^−/− BMDMs were primed with LPS±the indicated concentration of Smac-mimetics for 24 h. WT BMDM results are presented as the mean±SEM (n=3 biological independent repeats).

Tolerability = settings: in vivo
Description: . Binding of IAP antagonists to cIAP1 proteins induces a conformational rearrangement that exposes the RING domain. Once exposed, the RING domain dimerizes and E3 ubiquitin ligase activity is activated. Using a range of assays that evaluated cIAP1 stability; NF-κB activation; cIAP1 oligomeric state; […]. Birinapant-induced loss of cIAPs correlated with inhibition of TNF-mediated NF-κB activation, caspase activation, tumor cell killing, and tumor regression. Birinapant was well-tolerated. […]. […]; (ii.) decreased affinity for XIAP BIR3; (iii.) decreased ability to inhibit XIAP-dependent NOD signaling, despite its activity in an XIAP-dependent caspase-3 activation assay; and, (iv.) decreased pro-inflammatory IL-1β secretion. […]

cIAP2 BIR3 = cIAP2 BIR3 (Homo sapiens, UniProt Q13489); assay: Fluorescence polarization displacement assay, cIAP2 BIR3; settings: for Ki: read-out: cIAP2 BIR3, Ki
cIAP2 BIR3, sequence (Q13489 238-349 limits assumed): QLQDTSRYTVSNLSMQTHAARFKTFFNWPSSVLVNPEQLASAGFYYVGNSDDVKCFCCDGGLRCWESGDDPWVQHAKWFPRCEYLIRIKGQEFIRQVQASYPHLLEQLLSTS
Description: as §7

WT murine BMDMs = assay: IL-1β secretion from LPS-primed WT bone marrow-derived macrophages; assay type: cell-based; settings: 24 h
Description: Given the heightened activity of 2 versus 1 on cIAP2, we speculated that the improved tolerability of 1 might also be associated with reduced antagonism of XIAP functional activity in this system. We thus evaluated a selection of Smac-mimetics in both LPS-primed wild-type (WT) and XIAP knockout (Xiap^−/−) murine BMDMs to assess their capacity to induce the secretion of IL-1β following treatment with Smac-mimetic (FIG. 4).
WT and Xiap^−/− BMDMs were primed with LPS±the indicated concentration of Smac-mimetics for 24 h. WT BMDM results are presented as the mean±SEM (n=3 biological independent repeats). […] Total levels of IL-1β induced by Smac-mimetics in these assays varied but the trend was identical.

[7] = read-out: ΔGFP-cIAP2 EC50, 2 h, 2 h, A375 cells

SMILES: CN[C@@H](C)C(=O)N[C@H](C(=O)N1C[C@@H](O)C[C@H]1Cc1c(Cc2[nH]c3cc(F)ccc3c2C[C@@H]2C[C@H](O)CN2C(=O)[C@@H](NC(=O)[C@H](C)NC)C(C)(C)C)[nH]c2cc(F)ccc12)C(C)(C)C [(13)]
- Inhibition of DAP-mediated NF-κB-luc, % Inhibition [1]: No inhibition
- Inhibition of MDP-mediated NF-κB-luc, % Inhibition [2]: No inhibition

SMILES: CC[C@@H](NC(=O)[C@H](C)NC)C(=O)N1C[C@@H](O)C[C@H]1Cc1c(-c2[nH]c3cc(F)ccc3c2C[C@@H]2C[C@H](O)CN2C(=O)[C@@H](CC)NC(=O)[C@H](C)NC)[nH]c2cc(F)ccc12 [compound 4]
- EC50 (TNF-mediated NF-κB-luc): 4980 ± 996 nM
- DC50 (GFP-cIAP2 [3]; [7]): 5720 ± 157 nM
- DC50 (GFP-cIAP2 [4]): 5540 ± 115 nM

SMILES: CN[C@@H](C)C(=O)N[C@H](C(=O)N1C[C@@H](O)C[C@H]1Cc1c(Cc2[nH]c3cc(F)ccc3c2C[C@@H]2C[C@H](O)CN2C(=O)[C@@H](NC(=O)[C@H](C)NC)C(C)(C)C)[nH]c2cc(F)ccc12)C(C)(C)C [(11)]
- Kd (XIAP BIR3): < 1 nM
- Inhibition of DAP-mediated NF-κB-luc, % Inhibition [1]: 100 (n = 1) %
- Inhibition of MDP-mediated NF-κB-luc, % Inhibition [2]: 100 (n = 2) %

SMILES: CC[C@@H](NC(=O)[C@@H](C)NC)C(=O)N1C[C@H](O)C[C@@H]1Cc1c(-c2[nH]c3cc(F)ccc3c2C[C@H]2C[C@@H](O)CN2C(=O)[C@@H](CC)NC(=O)[C@@H](C)NC)[nH]c2cc(F)ccc12 [compound 5, ent-birinapant]
- EC50 (TNF-mediated NF-κB-luc): > 10000 nM
- DC50 (GFP-cIAP2 [3]; [7]): > 10000 nM
- DC50 (GFP-cIAP2 [4]): > 10000 nM

SMILES: CN[C@@H](C)C(=O)N[C@H](C(=O)N1C[C@@H](O)C[C@H]1Cc1c(-c2[nH]c3cc(F)ccc3c2C[C@@H]2C[C@H](O)CN2C(=O)[C@@H](NC(=O)[C@H](C)NC)[C@@H](C)OC)[nH]c2cc(F)ccc12)[C@@H](C)OC [Compound 5]
- degradation of TRAF2-bound cIAP-2 (TRAF2-bound cIAP-2): degraded
- antitumor activity compared to Compound 15 (xenograft): comparable antitumor activity
- extent of degradation of cytoplasmic cIAP-1 versus cIAP-1 bound to TRAF2 [5]: approximately the same
- tolerability in rats compared to Compound 15 [6]: less well-tolerated
- degradation of cytoplasmic cIAP-2 (cytoplasmic cIAP-2): degraded

SMILES: CC[C@H](NC(=O)[C@H](C)NC)C(=O)N1C[C@@H](O)C[C@H]1Cc1c(-c2[nH]c3cc(F)ccc3c2C[C@@H]2C[C@H](O)CN2C(=O)[C@H](CC)NC(=O)[C@H](C)NC)[nH]c2cc(F)ccc12 [birinapant (1), birinapant]
- EC50 (TNF-mediated NF-κB-luc): 9 ± 5 nM
- IL-1β secretion in Xiap−/− BMDMs (Xiap−/− murine BMDMs): induced IL-1β secretion
- EC50 (GFP-cIAP2 [3]; [7]): 108 ± 46 nM
- degradation of TRAF2-bound cIAP-2 (TRAF2-bound cIAP-2): degraded
- tolerability (Tolerability): well-tolerated
- Inhibition of DAP-mediated NF-κB-luc, % Inhibition ([1]; listed as 1): ca. 35%
- Inhibition of DAP-mediated NF-κB-luc, % Inhibition ([1]; listed as Birinapant (1)): 35 (+/−16) %
- Inhibition of DAP-mediated NF-KB-luc @ 2 h, % Inhibition ([1]; @ 2 h): 35 ± 16%
- Inhibition of MDP-mediated NF-κB-luc, % Inhibition ([2]; listed as 1): ca. 35%
- Inhibition of MDP-mediated NF-κB-luc, % Inhibition ([2]; listed as Birinapant (1)): 35 (+/−14) %
- Inhibition of MDP-mediated NF-KB-luc @ 2 h, % Inhibition [2]: 35 ± 14%
- EC50 (GFP-cIAP2 [4]): 151 ± 86 nM
- reduction of affinity for cIAP2 BIR3 compared with Compound A (cIAP2 BIR3): approximately 40 fold
- Ki (cIAP2 BIR3): 36 nM
- Ki (cIAP2 BIR3; listed as Birinapant): ~36 nM
- IL-1β secretion from LPS-primed WT BMDMs (WT murine BMDMs): no increase in IL-1β secretion
- degradation of cytoplasmic cIAP-2 (cytoplasmic cIAP-2): substantially non-degraded

SMILES: CC[C@H](NC(=O)[C@H](C)NC)C(=O)N1C[C@@H](O)C[C@H]1Cc1c(-c2[nH]c3cc(F)ccc3c2C[C@@H]2C[C@H](O)CN2C(=O)[C@@H](CC)NC(=O)[C@H](C)NC)[nH]c2cc(F)ccc12 [compound 3]
- EC50 (TNF-mediated NF-κB-luc): 1730 ± 985 nM
- reduced ability to degrade GFP-cIAP2 relative to 1 (GFP-cIAP2 [3]): 100 fold
- DC50 (GFP-cIAP2 [3]; [7]): > 10000 nM
- Inhibition of MDP-mediated NF-KB-luc @ 2 h, % Inhibition [2]: No
- DC50 (GFP-cIAP2 [4]): 4930 ± 1600 nM

SMILES: CN[C@@H](C)C(=O)N[C@H](C(=O)N1C[C@@H](O)C[C@H]1Cc1c(Cc2[nH]c3cc(F)ccc3c2C[C@@H]2C[C@H](O)CN2C(=O)[C@@H](NC(=O)[C@H](C)NC)C(C)(C)C)[nH]c2cc(F)ccc12)C(C)(C)C [(14)]
- Inhibition of DAP-mediated NF-κB-luc, % Inhibition [1]: 74 (+/−14) %
- Inhibition of MDP-mediated NF-κB-luc, % Inhibition [2]: 86 (+/−9) %

SMILES: CN[C@@H](C)C(=O)N[C@H](C(=O)N1C[C@@H](O)C[C@H]1Cc1c(Cc2[nH]c3cc(F)ccc3c2C[C@@H]2C[C@H](O)CN2C(=O)[C@@H](NC(=O)[C@H](C)NC)C(C)(C)C)[nH]c2cc(F)ccc12)C(C)(C)C [(12)]
- Kd (XIAP BIR3; read-out: XIAP BIR3 Kd): < 1 nM
- Inhibition of DAP-mediated NF-κB-luc, % Inhibition [1]: 99 (+/−2) %
- Inhibition of MDP-mediated NF-κB-luc, % Inhibition [2]: 98 (+/−2) %
